# Measurements taken from patent US11180518B2, “Phenyl-heterocycle-phenyl derivatives for use in the treatment or prevention of melanoma” (MAX-PLANCK-GESELLSCHAFT ZUR FÖRDERUNG DER WISSENSCHAFTEN …, priority 2017, dated 2021).
# “Also recorded” adds a separate entry of the source.
# Tests used:
# WM983-A melanoma cells = test: Melanoma cell proliferation analysis (hemocytometer counting); format: cell-based, human
# Source text: (§1) To assess the possible impact of anle138b as well as anle138c on the different melanoma cell lines, WM983-A, WM983-B and SK-MEL-5, we treated them with increasing doses of either compound, dissolved in dimethyl sulfoxide (DMSO), and added to serum-free culture medium. […] We also observed that treatment with anle138b caused a more rapid morphological change than anle138c. To determine whether the effect of the two anle compounds was related to the amount of α-synuclein produced by the cells, we compared the proliferation of the (VGP) WM983-A high-level and the (RGP/VGP) WM1158 low-level α-synuclein-producing melanoma cells over a period of 96 hr, with replenishment of each anle compound at 48 hr (FIGS. 8A and B).
# (§2) To compare how rapidly anle138b affected the proliferation of melanoma cells, expressing α-synuclein at a high level, we treated the melanoma cell lines, WM983-A (VGP) and WM983-B (MGP), for 24, 48 or 72 hr with 10 μM of anle138b, with replenishment of the compound (10 μM) at 48 hr.
# 10 or 30 mM stock solutions of anle138b or anle138c were made in DMSO. […] Proliferation of melanoma cells that had received DMSO only, or were treated with anle138b was determined by counting the cells with a hemocytometer.
# WM1158 melanoma cells [1] = test: Melanoma cell proliferation analysis; format: cell-based, human
# Source text: as §1
# (§3) 10 or 30 mM stock solutions of anle138b or anle138c were made in DMSO. Since anle138b as well as anle138c bind strongly to FBS, melanoma cells, plated for 24 hr in tissue-culture medium containing 10% FBS, were rinsed three times with serum-free medium prior to addition of anle138b, anle138c, or an equivalent volume of DMSO only in serum-free medium. Forty-eight hours later, the cell culture medium was removed, followed by addition of an equivalent dose of anle138b or anle138c, or DMSO only in serum-free culture medium. […] Proliferation of melanoma cells that had received DMSO only, or were treated with anle138b was determined by counting the cells with a hemocytometer.
# [2] = in vivo; cited from earlier work
# WM983-B melanoma cells [3] = test: LDH cytotoxicity analysis; settings: 2, 5, 10 or 15 μM for 96 hr, replenishment at 48 hr
# Procedure: Replicates of WM983-B as well as WM852 melanoma cells were plated at 3×10^5 cells per well in 35 mm tissue culture plates. Twenty-four hours later, the cells were rinsed three times with serum-free medium, followed by addition of increasing doses of anle138b or DMSO only. Forty-eight hours later, the cell culture medium was removed, followed by addition of equivalent doses of anle138b or DMSO only in serum-free medium. Culture medium, collected 48 hr later, was centrifuged to pellet and remove cellular debris. Using a PHERAstar FS microplate reader (BMG LABTECH GmbH, Ortenberg, Germany) and spectrophotometric absorbance measurement, the release of LDH enzyme activity into the tissue culture medium was determined with an LDH cytotoxicity assay kit (Roche Diagnostics Deutschland GmbH, Mannheim, Germany). […] Cells from the DMSO controls were trypsinized, counted, and lysed according to the manufacturer's instructions.
# SK-MEL-5 melanoma cells [4] = test: Mitochondrial membrane potential (MitoTracker Red CMXRos); format: cell-based, human; settings: single 10 μM dose, as early as 24 hr
# Procedure: (§4) Mitochondrial membrane potential. Melanoma cell lines WM983-B, SK-MEL-5 and WM1158 were treated with anle138b or received DMSO only for 24 or 48 hr. Prior to fixation with 3.7% PFA, the cells were incubated with 200 nM MitoTracker Red CMXRos (Thermo Fisher Scientific, Inc.) for 30 min at 37° C. Confocal image stacks were captured with a 63×NA 1.2 Apochromat water immersion lens on a Zeiss LSM 510 Meta confocal microscope in fluorescence and transmission modes.
# WM1158 melanoma cells [5] = test: as above; format: cell-based, human; settings: 10 μM, only after 48 hr
# Procedure: as §4
# WM983-B melanoma cells [6] = test: as above; format: cell-based, human; settings: single 10 μM dose, as early as 24 hr
# Procedure: as §4
# WM983-B melanoma cells [7] = test: Melanoma cell proliferation analysis (hemocytometer counting); format: cell-based, human; settings: single dose of 10 μM, 24 hr
# Procedure: as §2, §3
# SK-MEL-5 melanoma cells [8] = test: Cell morphology (phase-contrast); format: cell-based, human; settings: increasing doses, serum-free medium; time- and dose-dependent
# Source text: as §1, §3
# (§5) Cell morphology. Phase-contrast or DIC images of the melanoma cells that had been treated for various times with anle138b or anle138c, or had received DMSO only were captured with a 10×NA 0.6 objective on a Zeiss Axiovert 100 microscope with a Hamamatsu Orca charge-coupled device (CCD) camera. At least four images, at random areas per culture dish, were recorded for each time point.
# WM1158 melanoma cells [9] = test: Cell morphology (phase-contrast); format: cell-based, human; settings: 10 μM, up to 96 hr, replenishment at 48 hr
# Source text: as §1, §3, §5
# WM983-B melanoma cells [10] = test: Cell morphology (phase-contrast); format: cell-based, human; settings: increasing doses, serum-free medium; time- and dose-dependent
# Source text: as §1, §3, §5
# [11] = test system: high-level α-synuclein expressing cell lines WM983-B; test: Initial screen of sixteen compounds from the DPP library; format: cell-based, human
compound,measurement,setting,value
"Brc1cccc(-c2cc(-c3ccc4c(c3)OCO4)n[nH]2)c1 [anle138b, 5-(3-Bromophenyl)-3-(3,4-methylenedioxyphenyl)-1H-pyrazole]",proliferation of residual cells after removal of compound,"WM983-A melanoma cells; removal of compound-containing medium at 96 hr, then serum-free medium",not able to proliferate again
same,proliferation,"WM983-A melanoma cells; single dose of 10 μM, 24 hr",inhibited the proliferation of both cell lines to a significant extent
same,proliferation,"WM1158 melanoma cells [1]; over 96 hr, replenishment at 48 hr",reduced proliferation only after 48 hr
same,recovery of proliferation after removal of compound,"WM1158 melanoma cells [1]; removal at 96 hr, fresh culture medium containing serum",able to recover proliferation normally
same,oral bioavailability and blood-brain-barrier penetration,[2],excellent
same,cell killing (LDH release),WM983-B melanoma cells [3],strong killing that reached a maximum at a 10 μM dose
same,mitochondrial membrane potential,SK-MEL-5 melanoma cells [4],significantly reduced
same,mitochondrial membrane potential,WM1158 melanoma cells [5],some reduction
same,mitochondrial membrane potential,WM983-B melanoma cells [6],significantly reduced
same,proliferation,WM983-B melanoma cells [7],inhibited the proliferation of both cell lines to a significant extent
same,morphological changes,SK-MEL-5 melanoma cells [8],major morphological changes
same,morphology,WM1158 melanoma cells [9],did not show a significantly altered morphology
same,morphological changes,WM983-B melanoma cells [10],major morphological changes
same,effect on WM983-B cells in initial screen,[11],significantly affected; also recorded: strongest and most rapid effect
